Data reported in patent US10597388B2, “Pyridazinone herbicides” (FMC CORPORATION, priority 2014, dated 2020).

Key:
Type in all cases: in vivo
[1] = tested on: nutsedge, yellow (yellow nutsedge, Cyperus esculentus); test: Test C greenhouse herbicide test, pre- and postemergence
Method in brief: (§1)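 Visual 0–100 injury score (100 = complete control) taken against untreated controls after 13–15 d in greenhouse. Test chemicals, formulated in solvent plus surfactant, applied preemergence to seeds in loam–sand soil or postemergence to 1- to 4-leaf plants (2–18 cm).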

[2] = tested on: wheat (winter wheat, Triticum aestivum); test: as above
Method in brief: as §1

[3] = tested on: barnyardgrass (Echinochloa crus-galli); test: as above
Method in brief: as §1

[4] = tested on: galium (catchweed bedstraw, Galium aparine); test: as above
Method in brief: as §1

[5] = tested on: pigweed (Amaranthus retroflexus); test: Test A greenhouse herbicide test, pre- and postemergence
Method in brief: (§2)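 Visual injury ratings, 0 (no effect) to 100 (complete control), versus untreated plants after roughly 10 d in a greenhouse. Compounds, formulated in a surfactant-containing non-phytotoxic solvent, were sprayed on loam–sand soil after sowing (pre) or on one- to two-leaf plants 2–10 cm tall (post).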

[6] = tested on: barnyardgrass (Echinochloa crus-galli); test: as above
Method in brief: as §2

corn (Zea mays) = test: as above; details: Postemergence
Method in brief: as §2

[7] = tested on: ragweed (common ragweed, Ambrosia elatior); test: as above
Method in brief: as §2

[8] = tested on: foxtail, giant (giant foxtail, Setaria faberii); test: as above
Method in brief: as §2

[9] = tested on: blackgrass (Alopecurus myosuroides); test: Test A greenhouse herbicide test, postemergence; details: for Plant response rating, Blackgrass: 125 g ai/ha, 0 to 100 scale where 0 is no effect and 100 is complete control; for Blackgrass plant response rating: 500 g ai/ha, 0 to 100 scale, 0 is no effect, 100 is complete control
Method in brief: (§3)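 Scores are visual injury ratings from 0 (no effect) to 100 (complete control) versus untreated plants, taken roughly 10 d after treatment in the greenhouse. Treatment was postemergence, on one- to two-leaf plants 2–10 cm high growing in a loam soil/sand mix.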

[10] = tested on: galium (catchweed bedstraw, Galium aparine); test: Test A greenhouse herbicide test, postemergence
Method in brief: as §3

[11] = Postemergence, 125 g ai/ha, scale 0 to 100, 0 is no effect, 100 is complete control
[12] = Postemergence, 250 g ai/ha, scale 0 to 100, 0 no effect, 100 complete control, 13 to 15 d
[13] = postemergence, 62 g ai/ha, scale 0 to 100, 0 no effect, 100 complete control
[14] = Postemergence, 31 g ai/ha, 0 to 100 scale (0 no effect, 100 complete control)
[15] = Postemergence, 125 g ai/ha, 0 to 100 scale where 0 is no effect and 100 is complete control
[16] = Postemergence, 500 g ai/ha, visual rating after approx. 10 d, 0 to 100 scale (0 no effect, 100 complete control)
[17] = Preemergence, 125 g ai/ha, 0 to 100 scale where 0 is no effect and 100 is complete control
[18] = Preemergence, 500 g ai/ha, 0 to 100 scale where 0 is no effect and 100 is complete control
[19] = Postemergence, 500 g ai/ha, 0 to 100 scale, 0 is no effect, 100 is complete control
[20] = 125 g ai/ha, 0 to 100 scale where 0 is no effect and 100 is complete control
[21] = 500 g ai/ha, visual rating after approx. 10 d, 0 to 100 scale (0 no effect, 100 complete control)
[22] = Postemergence, 31 g ai/ha, scale 0 to 100 (0 no effect, 100 complete control)
[23] = Preemergence, 31 g ai/ha, scale 0 to 100, 0 is no effect, 100 is complete control
[24] = Preemergence, 62 g ai/ha, scale 0 to 100, 0 is no effect, 100 is complete control
[25] = Preemergence, 125 g ai/ha, scale 0 to 100, 0 is no effect, 100 is complete control
[26] = Preemergence, 250 g ai/ha, scale 0 to 100 (0 no effect, 100 complete control)

## CC(=O)Oc1c(C#N)nn(C)c(=O)c1-c1c(C)ccc2ccccc12 [Compound 98]
[1]; [11]
  Plant response rating, Nutsedge, Yellow: 50
[1]; [12]
  Plant response rating, Nutsedge, Yellow: 60
[1]; [13]
  Nutsedge, Yellow plant response rating: 15
[2]; [11]
  Plant response rating, Wheat: 15
[2]; [12]
  Plant response rating, Wheat: 30
[2]; [13]
  Wheat plant response rating: 10
[3]; [14]
  Barnyardgrass plant response rating: 60
[3]; [11]
  Plant response rating, Barnyardgrass: 98
[3]; [12]
  Plant response rating, Barnyardgrass: 98
[3]; [13]
  Barnyardgrass plant response rating: 85
[4]; [11]
  Plant response rating, Galium: 98
[4]; [12]
  Plant response rating, Galium: 98
[4]; [13]
  Galium plant response rating: 95
[5]; [15]
  Plant response rating, Pigweed: 100
[5]; [16]
  Plant response rating, Pigweed: 100
[5]; [17]
  Pigweed plant response rating: 100
[5]; [18]
  Plant response rating, Pigweed: 100
[6]; [15]
  Plant response rating, Barnyardgrass: 90
[6]; [19]
  Barnyardgrass plant response rating: 90
[6]; [17]
  Barnyardgrass plant response rating: 40
[6]; [18]
  Plant response rating, Barnyardgrass: 100
Corn (Zea mays); [20]
  Plant response rating, Corn: 20
Corn (Zea mays); [21]
  Plant response rating, Corn: 20
[7]; [15]
  Plant response rating, Ragweed: 100
[7]; [16]
  Plant response rating, Ragweed: 100
[7]; [17]
  Ragweed plant response rating: 60
[7]; [18]
  Plant response rating, Ragweed: 90
[8]; [15]
  Plant response rating, Foxtail, Giant: 90
[8]; [16]
  Plant response rating, Foxtail, Giant: 100
[8]; [17]
  Foxtail, Giant plant response rating: 90
[8]; [18]
  Plant response rating, Foxtail, Giant: 100
[9]
  Plant response rating, Blackgrass: 30
  Blackgrass plant response rating: 30
[10]; [20]
  Plant response rating, Galium: 100
[10]; [21]
  Plant response rating, Galium: 100

## COc1nn(C)c(=O)c(-c2c(C)sc3ccc(Cl)cc23)c1O [Compound 100]
[1]; [11]
  Plant response rating, Nutsedge, Yellow: 20
[1]; [12]
  Plant response rating, Nutsedge, Yellow: 50
[1]; [13]
  Nutsedge, Yellow plant response rating: 25
[2]; [11]
  Plant response rating, Wheat: 0
[2]; [12]
  Plant response rating, Wheat: 5
[2]; [13]
  Wheat plant response rating: 0
[3]; [14]
  Barnyardgrass plant response rating: 10
[3]; [11]
  Plant response rating, Barnyardgrass: 30
[3]; [12]
  Plant response rating, Barnyardgrass: 40
[3]; [13]
  Barnyardgrass plant response rating: 25
[4]; [11]
  Plant response rating, Galium: 95
[4]; [12]
  Plant response rating, Galium: 95
[4]; [13]
  Galium plant response rating: 95
[5]; [15]
  Plant response rating, Pigweed: 80
[5]; [16]
  Plant response rating, Pigweed: 90
[5]; [17]
  Pigweed plant response rating: 100
[5]; [18]
  Plant response rating, Pigweed: 100
[6]; [15]
  Plant response rating, Barnyardgrass: 30
[6]; [19]
  Barnyardgrass plant response rating: 30
[6]; [17]
  Barnyardgrass plant response rating: 20
[6]; [18]
  Plant response rating, Barnyardgrass: 20
Corn (Zea mays); [20]
  Plant response rating, Corn: 0
Corn (Zea mays); [21]
  Plant response rating, Corn: 20
[7]; [15]
  Plant response rating, Ragweed: 90
[7]; [16]
  Plant response rating, Ragweed: 90
[7]; [17]
  Ragweed plant response rating: 40
[7]; [18]
  Plant response rating, Ragweed: 80
[8]; [15]
  Plant response rating, Foxtail, Giant: 80
[8]; [16]
  Plant response rating, Foxtail, Giant: 80
[8]; [17]
  Foxtail, Giant plant response rating: 70
[8]; [18]
  Plant response rating, Foxtail, Giant: 90
[9]
  Plant response rating, Blackgrass: 40
  Blackgrass plant response rating: 70
[10]; [20]
  Plant response rating, Galium: 90
[10]; [21]
  Plant response rating, Galium: 100

## Cc1nn(C)c(=O)c(-c2c(C)sc3ccc(Cl)cc23)c1O [Compound 104]
[1]; [22]
  Plant response rating, Nutsedge, Yellow: 55
[1]; [11]
  Plant response rating, Nutsedge, Yellow: 60
[1]; [12]
  Plant response rating, Nutsedge, Yellow: 75
[1]; [23]
  Plant response rating, Nutsedge, Yellow: 30
[1]; [24]
  Plant response rating, Nutsedge, Yellow: 45
[1]; [25]
  Plant response rating, Nutsedge, Yellow: 75
[1]; [26]
  Nutsedge, Yellow plant response rating: 85
[2]; [22]
  Plant response rating, Wheat: 0
[2]; [11]
  Plant response rating, Wheat: 5
[2]; [12]
  Plant response rating, Wheat: 10
[2]; [23]
  Plant response rating, Wheat: 5
[2]; [24]
  Plant response rating, Wheat: 5
[2]; [25]
  Plant response rating, Wheat: 5
[2]; [26]
  Wheat plant response rating: 0
[3]; [22]
  Plant response rating, Barnyardgrass: 20
[3]; [11]
  Plant response rating, Barnyardgrass: 45
[3]; [12]
  Plant response rating, Barnyardgrass: 55
[3]; [23]
  Plant response rating, Barnyardgrass: 10
[3]; [24]
  Plant response rating, Barnyardgrass: 25
[3]; [25]
  Plant response rating, Barnyardgrass: 40
[3]; [26]
  Barnyardgrass plant response rating: 80
[3]; [13]
  Barnyardgrass plant response rating: 35
[4]; [22]
  Plant response rating, Galium: 95
[4]; [11]
  Plant response rating, Galium: 98
[4]; [12]
  Plant response rating, Galium: 98
[4]; [23]
  Plant response rating, Galium: 90
[4]; [24]
  Plant response rating, Galium: 85
[4]; [25]
  Plant response rating, Galium: 90
[4]; [26]
  Galium plant response rating: 98
[5]; [15]
  Plant response rating, Pigweed: 90
[5]; [16]
  Plant response rating, Pigweed: 90
[5]; [17]
  Pigweed plant response rating: 100
[5]; [18]
  Plant response rating, Pigweed: 100
[6]; [15]
  Plant response rating, Barnyardgrass: 70
[6]; [19]
  Barnyardgrass plant response rating: 100
[6]; [17]
  Barnyardgrass plant response rating: 80
[6]; [18]
  Plant response rating, Barnyardgrass: 100
Corn (Zea mays); [20]
  Plant response rating, Corn: 0
Corn (Zea mays); [21]
  Plant response rating, Corn: 20
[7]; [15]
  Plant response rating, Ragweed: 100
[7]; [16]
  Plant response rating, Ragweed: 100
[7]; [17]
  Ragweed plant response rating: 90
[7]; [18]
  Plant response rating, Ragweed: 100
[8]; [15]
  Plant response rating, Foxtail, Giant: 80
[8]; [16]
  Plant response rating, Foxtail, Giant: 100
[8]; [17]
  Foxtail, Giant plant response rating: 70
[8]; [18]
  Plant response rating, Foxtail, Giant: 100
[9]
  Plant response rating, Blackgrass: 90
  Blackgrass plant response rating: 90
[10]; [20]
  Plant response rating, Galium: 100
[10]; [21]
  Plant response rating, Galium: 100

## CCCC(=O)Oc1c(C)nn(C)c(=O)c1-c1c(C)sc2c(C)cc(C)cc12 [Compound 106]
[1]; [22]
  Plant response rating, Nutsedge, Yellow: 65
[1]; [11]
  Plant response rating, Nutsedge, Yellow: 90
[1]; [12]
  Plant response rating, Nutsedge, Yellow: 80
[1]; [23]
  Plant response rating, Nutsedge, Yellow: 60
[1]; [24]
  Plant response rating, Nutsedge, Yellow: 70
[1]; [25]
  Plant response rating, Nutsedge, Yellow: 80
[1]; [26]
  Nutsedge, Yellow plant response rating: 90
[2]; [22]
  Plant response rating, Wheat: 0
[2]; [11]
  Plant response rating, Wheat: 0
[2]; [12]
  Plant response rating, Wheat: 5
[2]; [23]
  Plant response rating, Wheat: 15
[2]; [24]
  Plant response rating, Wheat: 0
[2]; [25]
  Plant response rating, Wheat: 0
[2]; [26]
  Wheat plant response rating: 0
[3]; [22]
  Plant response rating, Barnyardgrass: 15
[3]; [11]
  Plant response rating, Barnyardgrass: 20
[3]; [12]
  Plant response rating, Barnyardgrass: 40
[3]; [23]
  Plant response rating, Barnyardgrass: 25
[3]; [24]
  Plant response rating, Barnyardgrass: 45
[3]; [25]
  Plant response rating, Barnyardgrass: 85
[3]; [26]
  Barnyardgrass plant response rating: 95
[3]; [13]
  Barnyardgrass plant response rating: 15
[4]; [22]
  Plant response rating, Galium: 95
[4]; [11]
  Plant response rating, Galium: 95
[4]; [12]
  Plant response rating, Galium: 100
[4]; [23]
  Plant response rating, Galium: 90
[4]; [24]
  Plant response rating, Galium: 90
[4]; [25]
  Plant response rating, Galium: 95
[4]; [26]
  Galium plant response rating: 95
[5]; [15]
  Plant response rating, Pigweed: 90
[5]; [16]
  Plant response rating, Pigweed: 90
[5]; [17]
  Pigweed plant response rating: 100
[5]; [18]
  Plant response rating, Pigweed: 100
[6]; [15]
  Plant response rating, Barnyardgrass: 70
[6]; [19]
  Barnyardgrass plant response rating: 90
[6]; [17]
  Barnyardgrass plant response rating: 80
[6]; [18]
  Plant response rating, Barnyardgrass: 100
Corn (Zea mays); [20]
  Plant response rating, Corn: 0
Corn (Zea mays); [21]
  Plant response rating, Corn: 20
[7]; [15]
  Plant response rating, Ragweed: 90
[7]; [16]
  Plant response rating, Ragweed: 90
[7]; [17]
  Ragweed plant response rating: 90
[7]; [18]
  Plant response rating, Ragweed: 100
[8]; [15]
  Plant response rating, Foxtail, Giant: 90
[8]; [16]
  Plant response rating, Foxtail, Giant: 90
[8]; [17]
  Foxtail, Giant plant response rating: 100
[8]; [18]
  Plant response rating, Foxtail, Giant: 100
[9]
  Plant response rating, Blackgrass: 90
  Blackgrass plant response rating: 90
[10]; [20]
  Plant response rating, Galium: 100
[10]; [21]
  Plant response rating, Galium: 100
